One data set has as its system alfa1 adrenoceptors. The following applies: as described in PCT/DK04/000546; cited from earlier work.
A further data set has as its target dopamine D1 receptors (Homo sapiens, UniProt P21728). The note with it: as described in PCT/DK04/000546; cited from earlier work.
For the next data set, the target named is dopamine D2 receptors (Homo sapiens, UniProt P14416). The following applies: as described in PCT/DK04/000546; cited from earlier work.
The test system of another data set is QT interval. The note with it: rabbit model; as described in PCT/DK04/000546; cited from earlier work.
The next data set deals with CYP2D6 (Homo sapiens, UniProt P10635). The following applies: as described in PCT/DK04/000546; cited from earlier work.
Chain of CYP2D6 (P10635 whole entry): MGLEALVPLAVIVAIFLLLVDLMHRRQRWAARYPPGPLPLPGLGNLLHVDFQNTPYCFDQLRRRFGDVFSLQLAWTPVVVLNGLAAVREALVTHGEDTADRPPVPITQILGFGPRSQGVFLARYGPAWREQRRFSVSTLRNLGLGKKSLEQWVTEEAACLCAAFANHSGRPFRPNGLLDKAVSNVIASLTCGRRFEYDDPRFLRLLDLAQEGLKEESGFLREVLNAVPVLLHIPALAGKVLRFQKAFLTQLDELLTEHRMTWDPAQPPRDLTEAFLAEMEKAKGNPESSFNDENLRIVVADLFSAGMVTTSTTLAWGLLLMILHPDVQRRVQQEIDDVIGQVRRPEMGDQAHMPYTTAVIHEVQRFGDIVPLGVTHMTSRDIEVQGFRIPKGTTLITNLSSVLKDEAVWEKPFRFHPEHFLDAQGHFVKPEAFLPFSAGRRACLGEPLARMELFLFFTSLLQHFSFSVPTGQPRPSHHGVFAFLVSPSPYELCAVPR
For the next data set, the target named is DA D2 receptors (Homo sapiens, UniProt P14416). The following applies: as described in PCT/DK04/000546; cited from earlier work.
Chain of DA D2 receptors (P14416 whole entry): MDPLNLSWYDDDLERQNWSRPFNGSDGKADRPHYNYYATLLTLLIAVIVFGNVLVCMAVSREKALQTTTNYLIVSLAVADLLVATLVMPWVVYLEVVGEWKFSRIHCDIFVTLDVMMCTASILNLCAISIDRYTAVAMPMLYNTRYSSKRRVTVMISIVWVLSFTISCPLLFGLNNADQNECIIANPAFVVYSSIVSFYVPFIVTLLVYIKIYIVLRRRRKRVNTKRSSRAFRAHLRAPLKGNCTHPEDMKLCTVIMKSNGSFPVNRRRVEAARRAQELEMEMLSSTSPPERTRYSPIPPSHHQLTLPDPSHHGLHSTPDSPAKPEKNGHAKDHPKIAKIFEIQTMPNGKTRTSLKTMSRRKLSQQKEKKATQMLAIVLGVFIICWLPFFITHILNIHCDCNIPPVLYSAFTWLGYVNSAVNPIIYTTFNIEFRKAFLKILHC
For data set [1], the target named is serotonin 5-HT2a receptors (Homo sapiens, UniProt P28223). The note with it: as described in PCT/DK04/000546; cited from earlier work.
Chain of serotonin 5-HT2a receptors (P28223 whole entry): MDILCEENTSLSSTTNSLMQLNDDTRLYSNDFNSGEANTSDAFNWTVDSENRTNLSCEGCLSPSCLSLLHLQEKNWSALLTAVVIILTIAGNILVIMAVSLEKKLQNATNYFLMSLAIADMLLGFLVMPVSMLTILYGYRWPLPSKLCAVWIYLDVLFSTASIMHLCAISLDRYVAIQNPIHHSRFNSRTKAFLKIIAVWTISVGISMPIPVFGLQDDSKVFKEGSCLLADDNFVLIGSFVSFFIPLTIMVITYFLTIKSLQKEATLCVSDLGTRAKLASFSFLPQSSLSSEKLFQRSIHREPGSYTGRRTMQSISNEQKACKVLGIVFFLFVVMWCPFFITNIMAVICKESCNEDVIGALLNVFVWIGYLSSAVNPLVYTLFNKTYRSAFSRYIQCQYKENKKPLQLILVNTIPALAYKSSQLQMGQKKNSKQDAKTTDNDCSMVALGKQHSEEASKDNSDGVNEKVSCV
The target in data set [2] is dopamine (DA) D1 receptors (Homo sapiens, UniProt P21728). The following applies: as described in PCT/DK04/000546; cited from earlier work.
Chain of dopamine (DA) D1 receptors (P21728 whole entry): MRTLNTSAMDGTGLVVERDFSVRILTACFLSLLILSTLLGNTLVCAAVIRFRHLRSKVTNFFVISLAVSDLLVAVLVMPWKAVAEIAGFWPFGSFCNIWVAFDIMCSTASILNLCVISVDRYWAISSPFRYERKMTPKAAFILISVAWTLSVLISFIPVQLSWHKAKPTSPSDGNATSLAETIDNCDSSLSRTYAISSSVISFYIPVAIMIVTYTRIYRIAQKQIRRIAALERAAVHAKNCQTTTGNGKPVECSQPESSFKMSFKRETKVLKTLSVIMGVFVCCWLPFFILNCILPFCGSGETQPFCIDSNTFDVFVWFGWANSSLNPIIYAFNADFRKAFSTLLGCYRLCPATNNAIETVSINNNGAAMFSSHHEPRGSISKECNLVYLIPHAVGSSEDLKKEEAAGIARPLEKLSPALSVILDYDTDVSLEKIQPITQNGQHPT
The subject of data set [3] is pigs sensitized to haloperidol. The data set is described as follows: dystonia in pigs sensitized to haloperidol. The format is in vivo.

Each structure is given as a SMILES string.

Chain of dopamine D2 receptors (P14416 whole entry): as the sequence (P14416 whole entry) above
Chain of dopamine D1 receptors (P21728 whole entry): as the sequence (P21728 whole entry) above

Consider `CC1(C)CN([C@@H]2C[C@@H](c3ccccc3)c3ccc(Cl)cc32)CCN1` [Compound I, trans-1-((1R,3S)-6-chloro-3-phenylindan-1-yl)-3,3-dimethylpiperazine], for which the “affinity for alfa1 adrenoceptors” value in the data set with alfa1 adrenoceptors was “high affinity”. Besides, the “functional activity at dopamine D1 receptors” value at dopamine D1 receptors is “antagonist”. Further, at dopamine D2 receptors, the “functional activity at dopamine D2 receptors” value is “antagonist”. Further, the “effect on the QT interval” value in the data set on QT interval is listed as “relatively low effect”. For the same compound, the “inhibition of CYP2D6” value on CYP2D6 was “relatively weak inhibitor”. Further, the “affinity for DA D2 receptors” value on DA D2 receptors is recorded as “high affinity”. The “functional activity at serotonin 5-HT2a receptors” value in [1] was “antagonist”. In addition, in [2], the “affinity for dopamine (DA) D1 receptors” value is “high affinity”. Further, the “induction of dystonia (EPS liability)” value in data set [3] is listed as “did not induce dystonia”.

(Values after patent US8450324B2, “Crystalline base of trans-1-((1R,3S)-6-chloro-3-phenylindan-1-yl)-3,3-dimethylpiperazine” (H. Lunbeck A/S, priority 2005, dated 2013).)
